Results: patent publication US4760147A, “Optically active, substituted 1,4-dihydropyridines and their use as medicaments” (Cassella Aktiengesellschaft, priority 1984, dated 1988)

Tested on: spiral strips of the arteria pulmonalis of guineapigs
Assay: calcium-antagonistic action: relaxing effect on potassium-depolarised, CaCl2-contracted spiral strips of the arteria pulmonalis (modified method of Godfraind and Kaba and of Schumann et al)
Format: cell-based
Conditions: depolarised with 40 mmol potassium; contraction triggered by 0.5 mmol CaCl2; mean value of 4 to 6 vascular strips; read-out: IC50 (concentration which inhibits the contraction by 50%)
Procedure: In these experiments, spiral strips of the arteria pulmonalis of guineapigs are depolarised with 40 mmol of potassium, after equilibration in calcium-freeTyrode's solution. The addition of 0.5 mmol of CaCl2 then triggers off contraction. The relaxing effect of the test substance is determined by cumulative addition in 1/2 log 10 graduated concentrations. The concentration of the test substance which inhibits the contraction by 50% (=IC50, mole/l) is determined from the concentration/effect curve (abscissa: -log mole/l of test substance, ordinate: % inhibition of the maximum contraction, mean value of 4 to 6 vascular strips).

SMILES	IC50 [nM]
CC1=C(C(=O)OC(C)C)C(c2cccc(Cl)c2Cl)C(c2nnco2)=C(C)N1 (single isomer, unassigned) [Example 1e, Isopropyl (-)-1,4-dihydro-2,6-dimethyl-3-(1,3,4-oxadiazol-2-yl)-4-(2,3-dichlorophenyl)-pyridine-5-carboxylate]	0.04
COC(=O)C1=C(C)NC(C)=C(c2nnco2)C1c1cccc(Cl)c1Cl (single isomer, unassigned) [Example 2, Methyl (-)-1,4-dihydro-2,6-dimethyl-3-(1,3,4-oxadiazol-2-yl)-4-(2,3-dichlorophenyl)-pyridine-5-carboxylate]	0.2
CCOC(=O)C1=C(C)NC(C)=C(c2nnco2)C1c1cccc(Cl)c1Cl (single isomer, unassigned) [Example 3, Ethyl (-)-1,4-dihydro-2,6-dimethyl-3-(1,3,4-oxadiazol-2-yl)-4-(2,3-dichlorophenyl)-pyridine-5-carboxylate]	0.07
COCCOC(=O)C1=C(C)NC(C)=C(c2nnco2)C1c1cccc(Cl)c1Cl (single isomer, unassigned) [Example 4, Methoxyethyl (-)-1,4-dihydro-2,6-dimethyl-3-(1,3,4-oxadiazol-2-yl)-4-(2,3-dichlorophenyl)-pyridine-5-carboxylate]	0.3
CCOC(=O)[C@@H](C)OC(=O)C1=C(C)NC(C)=C(c2nnco2)C1c1cccc(Cl)c1Cl (single isomer, unassigned) [Example 8c]	0.04
CC1=C(C(=O)OCCOC(C)C)C(c2cccc(Cl)c2Cl)C(c2nnco2)=C(C)N1 (single isomer, unassigned) [Example 16, 2-isopropoxy-ethyl (-)-1,4-dihydro-2,6-dimethyl-3-(1,3,4-oxadiazol-2-yl)-4-(2,3-dichlorophenyl)-pyridine-5-carboxylate]	0.1
